Data on five test systems can be found in the supplement of paper PMC10733146.

What all share (experiment): viability relative to DMSO control (fraction); higher = less drug effect (more viable cells)
What all share (conditions): 48 h

Compound in one assay: CCOc1cc(C(=O)N2CCC(N3CCN(C)CC3)CC2)ccc1Nc1ncc2c(n1)N(C1CCCC1)c1ccccc1C(=O)N2C [ERK5-IN-1]
In a few lines:
(§1)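 Using 384-well plates with compounds already plated at five concentrations, one well per concentration, 4 × 10^4 primary mononuclear tumour cells were added per well. Cells were Ficoll-isolated from blood or bone marrow or came from processed lymph node, fresh or cryopreserved. They were kept for 48 h at 37 °C and 5% CO2 in RPMI-1640 supplemented with penicillin/streptomycin, L-glutamine and human serum, and viability was read as CellTiter-Glo luminescence relative to the median of 16 inner DMSO wells.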

Compound in a further assay: Cn1c(=O)n(-c2ccc(C(C)(C)C#N)cc2)c2c3cc(-c4cnc5ccccc5c4)ccc3ncc21 [BEZ235]
In a few lines:
as §1

Compound in the next assay: COc1cc(OC)c(/C=C/S(=O)(=O)Cc2ccc(OC)c(NCC(=O)O)c2)c(OC)c1 [Rigosertib]
In a few lines: as §1

Compound in the next assay: O=C(CCCCCCC(=O)Nc1ccccc1)NO [Vorinostat]
Put shortly: as §1

Take primary MCL patient cells (S053): the viability with ERK5-IN-1 (0.024 µM) worked out at 0.874; with ERK5-IN-1 (0.12 µM), 0.868; with ERK5-IN-1 (0.6 µM), 0.705; in the assay with ERK5-IN-1 (3 µM), 0.536; with ERK5-IN-1 (15 µM) it was 0.344; with BEZ235 (0.024 µM) it was 0.984. The viability with BEZ235 (0.12 µM) came to 1.17; with BEZ235 (0.6 µM) it was 0.95; with BEZ235 (3 µM), 1.05; in the assay with BEZ235 (15 µM), 0.549; with Rigosertib (0.008 µM), 0.891; in the assay with Rigosertib (0.04 µM) it was 0.922. Also, the viability in the assay with Rigosertib (0.2 µM) amounted to 0.629; with Rigosertib (1 µM), 0.518; with Rigosertib (5 µM) it was 0.269; in the assay with Vorinostat (0.016 µM), 1.02; with Vorinostat (0.08 µM) it was 0.966; with Vorinostat (0.4 µM), 0.617. Besides, the figures for the viability with Vorinostat (2 µM) and in the assay with Vorinostat (10 µM) were 0.149 and 0.0944, respectively.
For primary AML patient cells (S071), the viability with ERK5-IN-1 (0.024 µM) was 0.967; in the assay with ERK5-IN-1 (0.12 µM), 0.876; with ERK5-IN-1 (0.6 µM), 0.89; in the assay with ERK5-IN-1 (3 µM), 0.66; with ERK5-IN-1 (15 µM), 0.238; with BEZ235 (0.024 µM) it was 0.787. For the same test system, the viability came out at 0.672 with BEZ235 (0.12 µM); 0.479 in the assay with BEZ235 (0.6 µM); 0.595 with BEZ235 (3 µM); 0.438 in the assay with BEZ235 (15 µM); 0.916 with Rigosertib (0.008 µM); 0.938 with Rigosertib (0.04 µM). For the same test system, the viability came to 0.84 with Rigosertib (0.2 µM); 0.686 in the assay with Rigosertib (1 µM); 0.628 in the assay with Rigosertib (5 µM); 0.929 in the assay with Vorinostat (0.016 µM); 0.749 with Vorinostat (0.08 µM); 0.562 in the assay with Vorinostat (0.4 µM). The viability with Vorinostat (2 µM) turned out to be 0.515; with Vorinostat (10 µM), 0.186.
primary AML patient cells (S079): the viability worked out at 0.867 in the assay with ERK5-IN-1 (0.024 µM); 0.779 in the assay with ERK5-IN-1 (0.12 µM); 0.644 with ERK5-IN-1 (0.6 µM); 0.424 with ERK5-IN-1 (3 µM); 0.192 in the assay with ERK5-IN-1 (15 µM); 0.88 with BEZ235 (0.024 µM). Besides, the viability with BEZ235 (0.12 µM) was 0.959; with BEZ235 (0.6 µM), 0.794; with BEZ235 (3 µM), 0.779; in the assay with BEZ235 (15 µM) it was 0.513; in the assay with Rigosertib (0.008 µM) it was 0.9; with Rigosertib (0.04 µM) it was 0.941. The viability with Rigosertib (0.2 µM) was 0.793; in the assay with Rigosertib (1 µM), 0.874; in the assay with Rigosertib (5 µM) it was 0.749; in the assay with Vorinostat (0.016 µM) it was 1.07; with Vorinostat (0.08 µM) it was 1.04; in the assay with Vorinostat (0.4 µM), 0.757. Also, the viability with Vorinostat (2 µM) was 0.256; with Vorinostat (10 µM), 0.175.
For the test system primary AML patient cells (S006), the viability was 1.08 with ERK5-IN-1 (0.024 µM); 1.12 in the assay with ERK5-IN-1 (0.12 µM); 1.23 with ERK5-IN-1 (0.6 µM); 0.93 with ERK5-IN-1 (3 µM); 0.58 with ERK5-IN-1 (15 µM); 0.873 with BEZ235 (0.024 µM). Further, the viability turned out to be 0.968 with BEZ235 (0.12 µM); 0.71 with BEZ235 (0.6 µM); 0.749 with BEZ235 (3 µM); 0.262 with BEZ235 (15 µM); 1.03 with Rigosertib (0.008 µM); 1.06 with Rigosertib (0.04 µM). Moreover, the viability with Rigosertib (0.2 µM) turned out to be 1.08; in the assay with Rigosertib (1 µM) it was 1.06; with Rigosertib (5 µM), 0.975; with Vorinostat (0.016 µM) it was 1.06; with Vorinostat (0.08 µM), 0.964; in the assay with Vorinostat (0.4 µM), 0.916. The viability with Vorinostat (2 µM) came to 0.651; with Vorinostat (10 µM), 0.147.
In the case of primary AML patient cells (S072), the viability with ERK5-IN-1 (0.024 µM) was 0.944; in the assay with ERK5-IN-1 (0.12 µM), 0.813; in the assay with ERK5-IN-1 (0.6 µM) it was 0.709; in the assay with ERK5-IN-1 (3 µM), 0.568; with ERK5-IN-1 (15 µM), 0.264; with BEZ235 (0.024 µM), 0.924. For the same test system, the viability with BEZ235 (0.12 µM) was determined as 0.966; with BEZ235 (0.6 µM) it was 0.764; with BEZ235 (3 µM) it was 0.687; with BEZ235 (15 µM) it was 0.331; with Rigosertib (0.008 µM) it was 0.941; in the assay with Rigosertib (0.04 µM) it was 0.99. Also, the viability with Rigosertib (0.2 µM) was determined as 0.983; in the assay with Rigosertib (1 µM), 0.935; with Rigosertib (5 µM) it was 0.872; in the assay with Vorinostat (0.016 µM), 1.1; with Vorinostat (0.08 µM), 0.994; in the assay with Vorinostat (0.4 µM), 0.739. Also, the figures for the viability with Vorinostat (2 µM) and in the assay with Vorinostat (10 µM) were 0.365 and 0.223, respectively.
